Laboratory results: US8557552B2, “Selective neuronal nitric oxide synthase inhibitors” (Northwestern University, priority 2011, dated 2013)

How the values were obtained:
Assay type in all cases: biochemical
[1] = molecular target: murine iNOS (Mus musculus, UniProt P29477); assay: NOS enzyme inhibition assay, iNOS; conditions: for Selectivity n/i: ratio Ki iNOS to Ki nNOS
[2] = molecular target: bovine eNOS (Bos taurus, UniProt P29473); assay: NOS enzyme inhibition assay, eNOS; conditions: for Ki: bovine eNOS; for Selectivity n/e: ratio Ki eNOS to Ki nNOS
[3] = molecular target: rat nNOS (Rattus norvegicus, UniProt P29476); assay: NOS enzyme inhibition assay, nNOS; conditions: for Ki: rat nNOS
[4] = murine iNOS, KM 8.2 μM, Ki = IC50/(1 + [S]/KM), Table 2
[5] = KM 1.7 μM, Ki = IC50/(1 + [S]/KM), Table 2
[6] = KM 1.3 μM, Ki = IC50/(1 + [S]/KM), Table 2

Sequence of bovine eNOS (P29473 whole entry): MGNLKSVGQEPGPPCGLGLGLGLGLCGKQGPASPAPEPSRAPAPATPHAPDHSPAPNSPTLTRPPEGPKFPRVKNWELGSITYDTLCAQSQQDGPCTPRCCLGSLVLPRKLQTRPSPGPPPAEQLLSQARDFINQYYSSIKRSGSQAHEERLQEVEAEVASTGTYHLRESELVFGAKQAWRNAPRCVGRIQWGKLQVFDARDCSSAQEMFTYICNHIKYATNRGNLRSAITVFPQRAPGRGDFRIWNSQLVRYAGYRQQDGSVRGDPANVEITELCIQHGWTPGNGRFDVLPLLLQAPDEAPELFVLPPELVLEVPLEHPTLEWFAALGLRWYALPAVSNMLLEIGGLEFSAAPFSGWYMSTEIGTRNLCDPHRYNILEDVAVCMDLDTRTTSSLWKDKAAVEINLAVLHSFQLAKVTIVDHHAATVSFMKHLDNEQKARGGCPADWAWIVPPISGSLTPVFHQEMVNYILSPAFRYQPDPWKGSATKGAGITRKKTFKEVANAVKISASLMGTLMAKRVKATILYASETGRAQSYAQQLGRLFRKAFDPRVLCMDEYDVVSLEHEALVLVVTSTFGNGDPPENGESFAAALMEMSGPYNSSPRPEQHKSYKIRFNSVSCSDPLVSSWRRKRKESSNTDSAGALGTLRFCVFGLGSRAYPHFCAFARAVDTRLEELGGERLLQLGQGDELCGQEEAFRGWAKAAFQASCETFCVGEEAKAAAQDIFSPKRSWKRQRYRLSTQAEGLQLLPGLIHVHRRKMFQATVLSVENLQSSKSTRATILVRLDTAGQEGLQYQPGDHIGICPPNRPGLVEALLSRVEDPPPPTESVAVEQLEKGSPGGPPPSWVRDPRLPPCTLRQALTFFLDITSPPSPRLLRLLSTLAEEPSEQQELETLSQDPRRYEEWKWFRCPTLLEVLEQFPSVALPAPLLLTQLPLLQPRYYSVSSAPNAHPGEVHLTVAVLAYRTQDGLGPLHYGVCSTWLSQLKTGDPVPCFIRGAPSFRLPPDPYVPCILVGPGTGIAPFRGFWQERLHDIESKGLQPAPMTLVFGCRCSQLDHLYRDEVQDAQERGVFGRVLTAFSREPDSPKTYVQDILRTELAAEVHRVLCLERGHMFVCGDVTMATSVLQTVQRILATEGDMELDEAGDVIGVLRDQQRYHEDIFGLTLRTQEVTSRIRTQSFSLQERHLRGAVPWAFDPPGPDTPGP
Sequence of rat nNOS (P29476 whole entry): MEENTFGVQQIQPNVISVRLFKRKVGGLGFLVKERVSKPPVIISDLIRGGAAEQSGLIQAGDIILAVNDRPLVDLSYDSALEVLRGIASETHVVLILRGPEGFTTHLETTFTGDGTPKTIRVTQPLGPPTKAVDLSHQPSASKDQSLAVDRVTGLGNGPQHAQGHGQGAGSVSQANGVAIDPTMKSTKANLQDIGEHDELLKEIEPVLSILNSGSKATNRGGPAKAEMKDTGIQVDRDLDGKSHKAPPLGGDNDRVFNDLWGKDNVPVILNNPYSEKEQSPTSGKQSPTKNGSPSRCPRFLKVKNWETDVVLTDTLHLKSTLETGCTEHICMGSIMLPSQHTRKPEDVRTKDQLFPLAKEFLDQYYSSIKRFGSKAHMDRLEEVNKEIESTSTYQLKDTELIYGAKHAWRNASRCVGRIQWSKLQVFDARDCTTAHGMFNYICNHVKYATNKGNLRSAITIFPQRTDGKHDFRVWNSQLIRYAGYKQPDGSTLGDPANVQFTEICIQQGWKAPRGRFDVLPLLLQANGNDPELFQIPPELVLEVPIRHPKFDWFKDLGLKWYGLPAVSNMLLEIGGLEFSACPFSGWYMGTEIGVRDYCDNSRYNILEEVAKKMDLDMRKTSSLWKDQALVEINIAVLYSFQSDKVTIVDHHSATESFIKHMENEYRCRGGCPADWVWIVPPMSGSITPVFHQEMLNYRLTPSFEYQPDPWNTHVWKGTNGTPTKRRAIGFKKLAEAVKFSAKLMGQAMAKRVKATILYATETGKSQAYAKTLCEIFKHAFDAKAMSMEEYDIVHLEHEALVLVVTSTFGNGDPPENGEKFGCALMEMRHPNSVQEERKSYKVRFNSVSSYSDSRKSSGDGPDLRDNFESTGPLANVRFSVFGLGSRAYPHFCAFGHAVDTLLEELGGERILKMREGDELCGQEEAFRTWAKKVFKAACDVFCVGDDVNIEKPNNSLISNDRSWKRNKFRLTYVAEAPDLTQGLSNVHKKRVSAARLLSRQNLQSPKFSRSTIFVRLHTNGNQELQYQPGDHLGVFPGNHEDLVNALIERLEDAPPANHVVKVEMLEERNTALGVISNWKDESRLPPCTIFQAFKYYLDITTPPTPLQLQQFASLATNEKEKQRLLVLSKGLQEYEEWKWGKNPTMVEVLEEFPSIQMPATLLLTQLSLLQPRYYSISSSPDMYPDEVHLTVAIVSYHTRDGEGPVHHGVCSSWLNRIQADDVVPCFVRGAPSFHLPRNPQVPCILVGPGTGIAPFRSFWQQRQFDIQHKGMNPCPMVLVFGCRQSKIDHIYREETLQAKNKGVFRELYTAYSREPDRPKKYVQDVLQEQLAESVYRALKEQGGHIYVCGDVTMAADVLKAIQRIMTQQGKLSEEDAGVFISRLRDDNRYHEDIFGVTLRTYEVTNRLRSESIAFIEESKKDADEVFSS

Cc1cc(N)nc(C[C@H]2CNC[C@H]2OCCC/C=C/c2cccc(F)c2)c1.Cl.Cl [HH005]
n/i, ratio of Ki (iNOS) to nNOS ([1]; Table 2): 9 | Ki [1, 4]: 134 µM | n/e, ratio of Ki (eNOS) to nNOS ([2]; Table 2): 4 | Ki [2, 5]: 69 µM | Ki [3, 6]: 15.4 µM

Cc1cc(N)nc(C[C@@H]2CNC[C@@H]2OCCCCCc2cc(F)cc(Cl)c2)c1 [HH002, 6-(((3R,4R)-4-((5-(3-chloro-5-fluorophenyl)pentyl)oxy)pyrrolidin-3-yl)methyl)-4-methylpyridin-2-amine]
n/i, ratio of Ki (iNOS) to nNOS ([1]; Table 2): 461 | Ki [1, 4]: 106 µM | n/e, ratio of Ki (eNOS) to nNOS ([2]; Table 2): 155 | Ki [2, 5]: 35.6 µM | Ki [3, 6]: 0.23 µM

Cc1cc(N)nc(C[C@@H]2CNC[C@@H]2OCCCOc2cc(F)cc(Cl)c2)c1 [25d]
Ki ([1]; in vitro, Table 1): 41.1 µM | Selectivity n/i ([1]; Table 1): 90.6 | Ki ([2]; in vitro, Table 1): 9.02 µM | Selectivity n/e ([2]; Table 1): 19.9 | Ki ([3]; in vitro, Table 1): 0.453 µM

Cc1cc(N)nc(C[C@@H]2CNC[C@@H]2OCCCCCc2cccc(F)c2)c1.Cl.Cl [HH001]
n/i, ratio of Ki (iNOS) to nNOS ([1]; Table 2): 91 | Ki [1, 4]: 83.8 µM | n/e, ratio of Ki (eNOS) to nNOS ([2]; Table 2): 37 | Ki [2, 5]: 33.8 µM | Ki [3, 6]: 0.922 µM

Cc1cc(N)nc(C[C@H]2CNC[C@H]2OCCCCNc2ccccn2)c1.Cl.Cl.Cl [Ji21]
n/i, ratio of Ki (iNOS) to nNOS ([1]; Table 2): 27 | Ki [1, 4]: 0.973 µM | n/e, ratio of Ki (eNOS) to nNOS ([2]; Table 2): 157 | Ki [2, 5]: 5.67 µM | Ki [3, 6]: 0.036 µM

COc1ccnc(CCCCO[C@H]2CNC[C@H]2Cc2cc(C)cc(N)n2)c1 [22c]
Ki ([1]; in vitro, Table 1): 5.44 µM | Selectivity n/i ([1]; Table 1): 31.3 | Ki ([2]; in vitro, Table 1): 5.47 µM | Selectivity n/e ([2]; Table 1): 31.5 | Ki ([3]; in vitro, Table 1): 0.174 µM

Cc1cc(N)nc(C[C@@H]2CNC[C@@H]2OCCCCOc2cc(F)cc(Cl)c2)c1.Cl.Cl [Ji23]
n/i, ratio of Ki (iNOS) to nNOS ([1]; Table 2): 106 | Ki [1, 4]: 12.4 µM | n/e, ratio of Ki (eNOS) to nNOS ([2]; Table 2): 37 | Ki [2, 5]: 4.37 µM | Ki [3, 6]: 0.117 µM

Cc1cc(N)nc(C[C@@H]2CNC[C@@H]2OCCCOc2cc(Cl)cc(C(F)(F)F)c2)c1 [25e]
Ki ([1]; in vitro, Table 1): 25.6 µM | Selectivity n/i ([1]; Table 1): 27.5 | Ki ([2]; in vitro, Table 1): 1.38 µM | Selectivity n/e ([2]; Table 1): 1.5 | Ki ([3]; in vitro, Table 1): 0.931 µM

COc1ccnc(/C=C/CCO[C@H]2CNC[C@H]2Cc2cc(C)cc(N)n2)c1 [compound 23]
Ki ([1]; in vitro, Table 1): 2.48 µM | Selectivity n/i ([1]; Table 1): 7.1 | Ki ([2]; in vitro, Table 1): 2.22 µM | Selectivity n/e ([2]; Table 1): 6.3 | Ki ([3]; in vitro, Table 1): 0.351 µM

Cc1cc(N)nc(C[C@@H]2CNC[C@@H]2OCCCOc2cc(C(F)(F)F)cc(C(F)(F)F)c2)c1 [25f]
Ki ([1]; in vitro, Table 1): 12.2 µM | Selectivity n/i ([1]; Table 1): 23.7 | Ki ([2]; in vitro, Table 1): 2.68 µM | Selectivity n/e ([2]; Table 1): 5.2 | Ki ([3]; in vitro, Table 1): 0.516 µM

Cc1cc(N)nc(C[C@@H]2CNC[C@@H]2OCCCCCc2cccc(N)c2)c1 [HH008, 6-(((3R,4R)-4-((5-(3-aminophenyl)pentyl)oxy)pyrrolidin-3-yl)methyl)-4-methylpyridin-2-amine]
n/i, ratio of Ki (iNOS) to nNOS ([1]; Table 2): 619 | n/e, ratio of Ki (eNOS) to nNOS ([2]; Table 2): 1117

Cc1cc(N)nc(C[C@H]2CNC[C@H]2OCCCCCc2cccc(F)c2)c1.Cl.Cl [HH004]
n/i, ratio of Ki (iNOS) to nNOS ([1]; Table 2): 52 | Ki [1, 4]: 468 µM | n/e, ratio of Ki (eNOS) to nNOS ([2]; Table 2): 4 | Ki [2, 5]: 34 µM | Ki [3, 6]: 9.06 µM

Cc1cc(N)nc(C[C@@H]2CNC[C@@H]2OCCCOc2ccc(F)c(C(F)(F)F)c2)c1 [25a]
Ki ([1]; in vitro, Table 1): 14.6 µM | Selectivity n/i ([1]; Table 1): 5.8 | Ki ([2]; in vitro, Table 1): 5.06 µM | Selectivity n/e ([2]; Table 1): 2.0 | Ki ([3]; in vitro, Table 1): 2.49 µM

Cc1cc(N)nc(C[C@@H]2CNC[C@@H]2OCCCCc2ccccn2)c1 [22a]
Ki ([1]; in vitro, Table 1): 12.5 µM | Selectivity n/i ([1]; Table 1): 5.4 | Ki ([2]; in vitro, Table 1): 15.9 µM | Selectivity n/e ([2]; Table 1): 6.8 | Ki ([3]; in vitro, Table 1): 2.34 µM

Cc1cc(N)nc(C[C@@H]2CNC[C@@H]2OCCCOc2cc(F)cc(C(F)(F)F)c2)c1 [25c]
Ki ([1]; in vitro, Table 1): 32.4 µM | Selectivity n/i ([1]; Table 1): 19.3 | Ki ([2]; in vitro, Table 1): 5 µM | Selectivity n/e ([2]; Table 1): 3.0 | Ki ([3]; in vitro, Table 1): 1.67 µM

Cc1cc(N)nc(C[C@@H]2CNC[C@@H]2OCCCOc2ccc(F)c(Cl)c2)c1 [25b]
Ki ([1]; in vitro, Table 1): 18.5 µM | Selectivity n/i ([1]; Table 1): 5.5 | Ki ([2]; in vitro, Table 1): 10.5 µM | Selectivity n/e ([2]; Table 1): 3.1 | Ki ([3]; in vitro, Table 1): 3.34 µM

Cc1ccnc(CCCCO[C@H]2CNC[C@H]2Cc2cc(C)cc(N)n2)c1 [22b]
Ki ([1]; in vitro, Table 1): 17.9 µM | Selectivity n/i ([1]; Table 1): 16.5 | Ki ([2]; in vitro, Table 1): 25.5 µM | Selectivity n/e ([2]; Table 1): 23.6 | Ki ([3]; in vitro, Table 1): 1.08 µM

Cc1cc(N)nc(C[C@@H]2CNC[C@@H]2OCCCCNc2ccccn2)c1.Cl.Cl.Cl [Ji20]
n/i, ratio of Ki (iNOS) to nNOS ([1]; Table 2): 54 | Ki [1, 4]: 0.491 µM | n/e, ratio of Ki (eNOS) to nNOS ([2]; Table 2): 154 | Ki [2, 5]: 1.39 µM | nNOS selectivity over eNOS compared with Ji19 ([2]; comment on Table 2): lower nNOS selectivity over eNOS | nNOS potency compared with Ji19 ([3]; comment on Table 2): higher nNOS potency | Ki [3, 6]: 0.009 µM

Cc1cc(N)nc(C[C@@H]2CNC[C@@H]2OCCCCOc2cc(F)cc(F)c2)c1.Cl.Cl [Ji22]
n/i, ratio of Ki (iNOS) to nNOS ([1]; Table 2): 32 | Ki [1, 4]: 38.1 µM | n/e, ratio of Ki (eNOS) to nNOS ([2]; Table 2): 122 | Ki [2, 5]: 146 µM | Ki [3, 6]: 1.2 µM

Cc1cc(N)nc(C[C@@H]2CNC[C@@H]2OCCC/C=C/c2cccc(F)c2)c1 [HH003, 6-(((3R,4R)-4-(((E)-5-(3-fluorophenyl)pent-4-en-1-yl)oxy)pyrrolidin-3-yl)methyl)-4-methylpyridin-2-amine]
n/i, ratio of Ki (iNOS) to nNOS ([1]; Table 2): 55 | Ki [1, 4]: 35.1 µM | n/e, ratio of Ki (eNOS) to nNOS ([2]; Table 2): 121 | Ki [2, 5]: 77 µM | Ki [3, 6]: 0.637 µM
